The nature of data set [1]: Permeability and efflux transporter substrate evaluation in Caco-2 cells. The data set is classed as in vitro ADME. Set-up: Papp A→B at 120 min / Papp B→A at 120 min / efflux ratio at 120 min / Papp at 120 min: dose or concentration left out as unconfirmed. Conditions: human; for Papp at 120 min / efflux ratio at 120 min: Caco-2, pH 7.4; for Papp at 120 min: read-out: Classification Permeability; for Papp A→B at 120 min / Papp B→A at 120 min: pH 7.4, pH 7.40; for Papp A→B at 120 min: Caco-2, apical to basolateral; for Papp B→A at 120 min: Caco-2, basolateral to apical. As to the method: (§1) The cells were cultured in a carbon dioxide incubator for 21-28 days before being used for transport experiments. During this period, the culture medium was changed every four to five days.
(§2) This project uses Hank's balanced salt buffer (pH 7.40±0.05) containing 10 mM HEPES as the transport buffer. The culture medium was removed from the culture plate and the cells were washed twice with preheated transport buffer (approximately 75 μL and 40 mL of transport buffer for each apical well and basolateral receiver plate respectively). The donor solution and receiver solution were added to the corresponding cell plate wells (75 and 250 μL for each apical and basolateral well respectively), and the bidirectional transport experiment was started (apical to basolateral (A-B) and basolateral to apical (B-A)). The test concentration of the test substance was […], and two replicate wells were made for each dosing concentration. The test concentration of Digoxin was […], with dosing bidirectionally; the test concentrations of nadolol and metoprolol were both […], and they were dosed in one direction (A-B direction), and two replicate wells were made for each of the three control compounds.
(§3) The initial donor solution is the TO sample. After adding the sample, it was mixed with the transport buffer and stop solution in a certain proportion.
(§4) All samples were vortexed, and then centrifuged at 3220×g for 20 min at 20° C. A proper volume of supernatant was transferred to a sample assay plate, and the sample was stored at 2-8° C. if it was not analyzed immediately after the plate was sealed, and LC MS/MS method was used for analysis.
(§5) The Lucifer Yellow Rejection Assay was used to test the integrity of the Caco-2 cell layer.
(§6) The following formulas were used to calculate the apparent permeability coefficient (Papp, cm/s), efflux ratio (ER), and solution recovery (%) (% Solution Recovery).
(§7) [formula] [formula] [formula] • VR is the volume of the receiver side solution (side A is 0.075 mL, side B is 0.25 mL); Area is the relative surface area of the cell monolayer (0.0804 cm^2); Time is the incubation time (7200 s); C0 is the initial concentration (nM) of the test substance at the donor side or the peak area ratio of the control compound; VD is the volume of the donor side (side A is 0.075 mL, side B is 0.25 mL); CD and CR are the final concentration (nM) of the test substance at the donor side and the receiver side respectively or the peak area ratio of the control compound; • Lucifer yellow transmittance rate (% Lucifer Yellow) is calculated using the following formula:
(§8) [formula] • RFUApical and RFUBasolateral are the relative fluorescence intensity of lucifer yellow at the apical and basolateral sides respectively. VApical and VBasolateral are the sample loading volumes at the apical and basolateral sides respectively (0.075 and 0.25 mL respectively).

In the next data set the test system is Caco-2 cells. The data set is described as above. In kind it is in vitro ADME. The conditions noted are these: Caco-2. On the set-up: Papp A→B at 120 min / Papp B→A at 120 min / efflux ratio at 120 min / Papp at 120 min: dose or concentration left out as unconfirmed. The protocol:
as §1, §2, §3, §4, §5, §6, §7, §8

Data set [2] has as its system HCT116 cells. Put plainly: In vivo pharmacodynamic study of compound 1 in HCT116 tumor-bearing mice. On the set-up: species or system Balb/C Nude mice. Conditions: 20 mg/kg once a day by gavage, vs sham group. An excerpt: Balb/C Nude mice, SPF grade, male, weighing 18-20 g, were purchased from Jiangsu Gempharmatech Co., Ltd.
HCT116 cells were purchased from ATCC.
Matrigel Matrix, Cat. No. 354248, was purchased from Becton, Dickinson and Company.
Kolliphor® HS 15, Cat. No. 42966, was purchased from Sigma-Aldrich.
a. Establishment of tumor-bearing mouse model: HCT116 cells in the logarithmic growth phase were taken and cultured, the cells were collected and counted, and then subcutaneously inoculated into Balb/C Nude mice at 1×10^6/mouse. The tumor volume and body weight of the mice were measured regularly. 7 days after inoculation, mice with tumor volume of 150 mm3 were randomly divided into groups and treated with corresponding drugs.
b. […] The administration was performed once a day by gavage for 21 consecutive days, and the tumor volume and body weight of the mice were measured regularly.
3. Data processing: All data were organized in EXCEL, and One-way ANOVA analysis and drawing were performed using GraphPad Prism 8.0 software. Statistical significance was achieved when p<0.05.

Another data set deals with T1, PLK1 kinase (Homo sapiens, UniProt P53350).
T1 construct: purchased Carnabio (Carna Biosciences) 05-157
T1 sequence (P53350 whole entry): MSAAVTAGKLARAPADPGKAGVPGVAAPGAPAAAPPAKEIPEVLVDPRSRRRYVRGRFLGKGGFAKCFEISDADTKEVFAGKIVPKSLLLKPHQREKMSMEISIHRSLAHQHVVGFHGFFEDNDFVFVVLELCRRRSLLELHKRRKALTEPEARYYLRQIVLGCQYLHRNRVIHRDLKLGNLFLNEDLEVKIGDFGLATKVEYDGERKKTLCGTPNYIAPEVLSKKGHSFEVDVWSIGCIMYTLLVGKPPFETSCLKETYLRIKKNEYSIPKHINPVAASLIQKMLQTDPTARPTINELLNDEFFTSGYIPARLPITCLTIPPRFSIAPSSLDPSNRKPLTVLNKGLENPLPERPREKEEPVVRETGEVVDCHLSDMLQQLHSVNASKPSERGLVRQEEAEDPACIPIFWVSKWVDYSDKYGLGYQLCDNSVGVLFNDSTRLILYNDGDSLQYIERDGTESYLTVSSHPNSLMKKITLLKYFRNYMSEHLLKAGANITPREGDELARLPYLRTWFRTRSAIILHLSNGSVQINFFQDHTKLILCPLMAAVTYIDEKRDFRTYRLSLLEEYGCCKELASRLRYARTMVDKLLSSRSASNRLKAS
Put plainly: Inhibitory activity on PLK1 kinase. The data set is classed as biochemical. The conditions noted are these: for Imax: maximum effect caused by the compound at the test concentration. As to the method: Detection solution PerkinElmer #TRF0218-M
Detection instrument PerkinElemer EnVision
a. Using the Echo machine, the compounds to be tested were diluted by 1:3 on a 384-well plate, and the highest concentration was 1 μM, with a total of 10 concentration points, and each concentration was tested in duplicate wells.
b. 5 μL/well of PLK1 kinase and peptide substrate mixture were added to the assay plate (containing controls).
d. The reaction was initiated by adding 5 μL/well of ATP solution;
e. The assay plate was centrifuged at 1000 rpm for about 15 seconds, a film was used to seal the assay plate which was incubated at 23° C. for a period of time;
f. A detection solution was added to all wells of the assay plate;
g. The assay plate was centrifuged at 1000 rpm for approximately 15 seconds, a film was used to seal the assay plate which was incubated at 23° C. for 60 min.
h. The assay plate was read on EnVision. The test results were analyzed using XLFIT5 software.

Data set [3] has as its system HCT116 cells. Description: Inhibitory activity on HCT116 cell proliferation (ATPlite). Conditions: Homo sapiens. In kind it is cell-based. As to the method: Cell culture medium: RPMI1640+10% FBS (GBICO)
Cell culture plate: 96-well plate (Shanghai Jingan Biotechnology Co., Ltd.)
Detection kit: ATPlite 1step Luminescence (PerkinElmer)
Detection instrument: BioTek multifunctional microplate reader
2. Test method: HCT116 cells in the logarithmic growth phase were seeded into a white-wall clear-bottom 96-well plate at a density of 720 cells per well, and cultured overnight in a 37° C., 5% CO2 incubator. […] After adding the drug, culturing was continued for 72 h in a 37° C., 5% CO2 incubator.
GraphPad Prism 7.0 was used to process the data, the cell inhibition rate curve was obtained and IC50 was calculated.

Data set [4] is described as follows: Metabolic stability in mouse liver microsomes. The data set is classed as in vitro ADME. As to the method:
(§9) a. Preparation of phosphate buffer: The phosphate buffer powder was dissolved in 100 mL of pure water to prepare a phosphate buffer solution with a pH of 7.4 and a concentration of 100 mM, which was stored in a 4° C. refrigerator for later use.
(§10) b. All samples as well as the reference testosterone were dissolved in DMSO to obtain a 10 mM stock solution. The 10 mM stock solution was diluted to 100 μM with acetonitrile to obtain a working solution for later use.
(§11) c. Preparation of liver microsome working solution: Each of the mouse, rat and human liver microsome stock solutions (at concentration of 20 mg/mL) was taken and diluted to 0.56 mg/mL with 100 mM phosphate buffer solution to obtain the liver microsome working solution.
(§12) d. Preparation of solution: An appropriate amount of MgCl2 was weighed and used to prepare a MgCl2 solution at a concentration of 60 mM using 100 mM phosphate buffer solution. An appropriate amount of NADPH was weighed and used to prepare a NADPH solution at a concentration of 20 mM using 100 mM phosphate buffer solution. An equal volume of 60 mM MgCl2 solution was added to prepare an NADPH working solution containing 10 mM NADPH and 30 mM MgCl2. An acetonitrile solution containing 20 ng/mL tolbutamide was prepared as the stop solution.
(§13) e. Liver microsome incubation: 2 μL of each compound and the positive drug testosterone working solution were added to 178 μL of liver microsome working solution (0.56 mg/mL), mixed gently, and pre-incubated in a vibrating constant temperature water bath pot at 37° C. for 10 min. After adding 20 μL of NADPH working solution, the mixture was placed in a vibrating constant temperature water bath pot at 37° C. and timed incubation was started for 5, 10, 20, 30 and 60 min.
(§14) f. Stopping reaction: After the corresponding time of incubation, 400 μL of stop solution was added to stop the reaction, and then the sample was immediately shaken for 1 min. The sample was centrifuged at 13500 rpm for 10 min at 10° C. After centrifugation, the supernatant was removed, diluted with water according to the needs of each compound, and analyzed by LC-MS. For the 0-minute sample, the stop solution was first added and mixed evenly with the liver microsomes, and then the NADPH working solution was added. For the negative control sample, 20 μL of 30 mM MgCl2 solution was added instead of the NADPH working solution.
(§15) T1/2 and CLint(mic) were calculated by the following formula.
(§16) [formula] [formula] • CLint(mic)=0.693/T1/2/liver microsomal protein concentration during incubation (mg/mL) • CLint(ver)=CLint(mic)*liver microsomal protein (mg)/liver weight (g)*liver weight to body weight ratio
(§17) Liver microsomal protein (mg)/liver weight (g): the value is 45 in both animal and human species.
(§18) Liver weight to body weight ratio: the parameters for mice, rats and humans are 88, 40 and 20 g/kg respectively.

A short description of data set [5]: Metabolic stability in rat liver microsomes. In kind it is in vitro ADME. As to the method:
as §9, §10, §11, §12, §13, §14, §15, §16, §17, §18

Data set [6] in a line: Metabolic stability in human liver microsomes. The data set is classed as in vitro ADME. As to the method:
as §9, §10, §11, §12, §13, §14, §15, §16, §17, §18

Read-outs that look alike come from different tables or passages of the source.

Regarding `CN1CCN(c2ccc(OC(F)(F)F)c(Nc3ncc4ccc5c(C(N)=O)nn(CCO)c5c4n3)c2)CC1` [Compound 1], in data set [1], the Papp at 120 min is 0.5 to 2.5 ×10⁻⁶ cm/s, the Papp A→B at 120 min was 0.965 ×10⁻⁶ cm/s and the Papp B→A at 120 min turned out to be 20.8 ×10⁻⁶ cm/s. The “Classification Efflux transporter substrate” value with Caco-2 cells was “Likely (ERa ≥ 2.00)”. Also, in the data set on HCT116 cells [2] (11 days), the tumor inhibition rate is on record as 82.0%. The molecule further registered a tumor inhibition rate with HCT116 cells [2] (16 days) of 86.5%. The same molecule came in with a tumor inhibition rate with HCT116 cells [2] (21 days) of 88.3%.
As to `CN1CCN(c2ccc(OC(F)(F)F)c(Nc3ncc4ccc5c(C(N)=O)nn(C)c5c4n3)c2)CC1` [Compound 3], the IC50 was 0.714 nM against PLK1 kinase and 93 nM in the data set with HCT116 cells [3] (HCT-116, 72 h). Also, the Imax on PLK1 kinase is on record as 99.57%. Moreover, the efflux ratio at 120 min in data set [1] is 1.32. In data set [1], the Papp at 120 min fell in the range of 0.5 to 2.5 ×10⁻⁶ cm/s. Further, the Papp A→B at 120 min in data set [1] came to 0.644 ×10⁻⁶ cm/s. The Papp B→A at 120 min in data set [1] worked out at 0.851 ×10⁻⁶ cm/s. In addition, the “Classification Efflux transporter substrate” value in the data set on Caco-2 cells was “Very unlikely or not (ERa < 2.00)”. Also, the “60 min remaining amount” value in data set [4] was determined as 4.32%; in data set [5], 2.74%; in data set [6], 7.83%. Besides, the Clearance rate result in data set [4], in data set [5] and in data set [6] was “High” each time. In addition, the CLint scaled at 1 µM in data set [4] (mouse, pH 7.4) is 409 mL/min/kg; in data set [5] (rat, pH 7.4), 505 mL/min/kg; in data set [6] (human, pH 7.4), 78.7 mL/min/kg. In addition, the half-life at 1 µM in data set [4] (mouse, pH 7.4) is 13.4 min; in data set [5] (rat, pH 7.4) it was 4.94 min; in data set [6] (human, pH 7.4), 15.9 min. Moreover, the microsomal CLint at 1 µM is 103 µL/min/mg in data set [4] (mouse, pH 7.4, read-out: CLint(mic)); 281 µL/min/mg in data set [5] (rat, pH 7.4, read-out: CLint(mic)); 87.4 µL/min/mg in data set [6] (human, pH 7.4, read-out: CLint(mic)).
Turning to `CN1CCN(c2ccc(OC(F)(F)F)c(Nc3ncc4c(n3)-c3c(c(C(=O)NOCCO)nn3C)CC4)c2)CC1` [Compound 11], the IC50 on PLK1 kinase (PLK1 kinase, highest concentration 1 μM, 10 points, read-out: IC50) stood at 1.8 nM. The molecule further returned an Imax at PLK1 kinase of 99.65%. Besides, the IC50 with HCT116 cells [3] (HCT-116, HCT116 cells, 72 h, read-out: IC50) was found to be 205 nM. In data set [1], the efflux ratio at 120 min was found to be 22.1, the Papp at 120 min was 0.5 to 2.5 ×10⁻⁶ cm/s, the Papp A→B at 120 min amounted to 1.13 ×10⁻⁶ cm/s and the Papp B→A at 120 min was found to be 25 ×10⁻⁶ cm/s. Besides, the “Classification Efflux transporter substrate” value in the data set on Caco-2 cells is on record as “Likely (ERa ≥ 2.00)”.

These data come from US20260176249A1, “PROTEIN KINASE INHIBITOR, PREPARATION METHOD THEREFOR, AND APPLICATION THEREOF” (SHANDONG LUYE PHARMACEUTICAL CO., LTD., priority 2021, published 2026).
